Source: patent US9163018B2, “Method of treatment of age-related macular degeneration (AMD)” (Prana Biotechnology Limited, priority 2006, dated 2015)
Read-outs that look alike come from different tables or passages of the source.

Assays:
Aβ 1-42 = molecular target: T1, Aβ 1-42 (Homo sapiens, UniProt P05067); assay: Fluorometric H2O2 assay (inhibition of Abeta H2O2 production); type: biochemical; settings: concentration required to inhibit 50% of Abeta H2O2 production; read-out: H2O2 IC50
T1 construct: The reaction solutions contained Aβ 1-42 at concentrations
T1 sequence (P05067 672-713 limits assumed): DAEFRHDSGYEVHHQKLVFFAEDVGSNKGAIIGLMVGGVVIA
In short: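 Copper-dependent Aβ H2O2 production measured fluorometrically with deacetylated dichlorofluorescein plus HRP in PBS, pH 7.4. Incubation 60 min at 37 C, test compound included in wells. H2O2 quantified against H2O2 standards.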

[1] = molecular target: T2, Abeta:Zn (25:50 μM) Synthetic Aggregations (Homo sapiens, UniProt P05067); assay: Disaggregation of Abeta:Zn synthetic aggregates (ThT fluorescence); type: biochemical; settings: for Disaggregation % Aggregate reduction at 5 μM: 5 μM test compound; for EC50: Abeta:Zn 25:50 μM aggregates
T2 construct: PB Compound Mediated Dissolution of Aggregated Abeta 1-42; purchased Keck Laboratory, Yale University School of Medicine
T2 sequence (P05067 672-713 limits assumed): as above
In short: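 Abeta1-42 (25 μM) with ZnCl2 (50 μM) and ThT (50 μM) in PBS pH 6.6 was preaggregated 24 h at 37 degrees with rotation. Aggregates were then exposed to compound (final 1-50 μM, DMSO) for 2 h at 37 degrees. ThT fluorescence was read at ex 450/em 480 nm.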

[2] = Mice plasma concentration after oral dose; type: in vivo; settings: for Mice plasma concentration: 30 min to 4 h after single or repeat oral dose of 30 mg/kg
[3] = mouse, in vivo, 10 days
[4] = tested on: M17 human neuroblastoma cells; assay: Cytotoxicity, M17 human neuroblastoma cells; type: cell-based; settings: for Cytotox (% viable) M17 cells at 1 μM: 1 μM test compound; for Cytotox (% viable) M17 cells at 10 μM: 10 μM test compound
Method: Assay 3. MTS Assay for Cell Viability
Cell viability is determined using the MTS assay. Culture medium is replaced with fresh neurobasal medium plus B27 supplements minus antioxidants. 1/10th volume MTS solution (Cell Titre 96 Aqueous One, Promega Corporation) and incubated at 37° C., 2 hrs. 200 microliter aliquots are measured with a spectrophotometer at 560 nm.

[5] = tested on: dityrosine oligomerization; assay: CuTy: inhibition of dityrosine oligomerization; type: biochemical; settings: referenced to in-house standard (set as 100% inhibition)
Aβ deposits = settings: 9 weeks; for Tg Mice % difference from control in Amyloid plaque abundance / Tg Mice % difference from control in insoluble brain amyloid burden / Tg Mice % difference from control in soluble brain amyloid burden: daily oral gavage 30 mg/kg, 13-14 months old transgenic mice
[6] = Toxicity, visual observations in mice; settings: duration and visual observations
[7] = tested on: metal ions in retinal drusen; assay: Post mortem retina screening, ZP1 zinc labeling of Bruch membrane; settings: 15 hours incubation; TPEN 100 μM, PB-1033 100 and 250 μM; 10 μM ZP1
Method: Post Mortem Screening The BAS assay is adopted for post mortem retina. Using a trephine, 6 mm diameter regions of peripheral retina from frozen donor eyes are dissected. Following defrosting, the neuronal retina and the RPE cells are removed by gentle agitation in PBS buffer. Following removal of the RPE cells, strips of the Bruch membrane are cut from the eye. 4 samples are prepared: 1) Control […] Samples are then washed 3 times and the labeling visualized using a fluorescence and confocal microscope. A repeat of this procedure is performed with the exception that samples are incubated for a period of 15 hours before washing to determine differential metal binding over this longer period. The test results are in the form of fluorescence imaging from a confocal microscope of the 4 samples tested in this Example after 15 hours of sample incubation. […] Fluorescence microscopic photographs (which are in colour) are available upon request from the […].

[8] = tested on: primary cortical neuronal cultured cells; assay: Test compound cytotoxicity, MTS assay, primary cortical neuronal cultures; type: cell-based, mouse
In short: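 Primary cortical neurons were cultured five days in Neurobasal/B27, then exposed on day six to compounds (from 2.5 mM DMSO stocks) in medium minus antioxidants, in triplicate for 4 days at 37° C. Viability was measured by MTS, 2 h at 37° C, absorbance at 560 nm.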

Structure (SMILES)	IC50 (Aβ 1-42) [nM]	Disaggregation % Aggregate reduction at 5 μM [1] [%]	EC50 [1] [nM]	Mice plasma concentration [2]	Toxicity at 30 mg/kg [3]	Cytotox (% viable) M17 cells at 1 μM [4] [%]	Cytotox (% viable) M17 cells at 10 μM [4] [%]	CuTy % inhibition of dityrosine oligomerization [5]	Tg Mice % difference from control in Amyloid plaque abundance (Aβ deposits)	Tg Mice % difference from control in insoluble brain amyloid burden (Aβ deposits)	Tg Mice % difference from control in soluble brain amyloid burden (Aβ deposits)	Toxicity at 30 mg/kg [6]	ZP1 (zinc sensor) labeling of post mortem Bruch membrane [7]	Cytotox (% viable) Neuronal cells at 1 μM ([8]; 1 μM test compound) [%]	Cytotox (% viable) Neuronal cells at 10 μM ([8]; 10 μM test compound) [%]	Mice plasma concentration at 10 mg/kg ([2]; oral dose 10 mg/kg)	Tg Mice effect on brain amyloid burden and plaque at 10 mg/kg (Aβ deposits; daily oral gavage 10 mg/kg)	Toxicity at 10 mg/kg ([6]; 10 mg/kg)
CC(C)n1cnc2c(O)c(I)ccc2c1=O [PB 1153]	320	53	4700	Up to 277 ng/ml ng/mL	10 days, 1/4 deaths	–	–	–	–	–	–	–	–	–	–	–	–	–
O=C(NCc1ccc(F)cc1)c1cnc2c(O)c(I)ccn2c1=O [PB 1158]	990	10	> 20000	–	7 days, 4/4 deaths	104.7	56	–	–	–	–	–	–	–	–	–	–	–
O=c1c2ccc(I)c(O)c2ncn1CC1CC1 [PB 1120]	280	47.5	5600	Up to 2508 ng/ mL ng/mL	–	106.9	62	CuTy: 25% inhibition	Decrease	No change	No change	10 days, none	–	–	–	–	–	–
Nc1cc(Cn2cnc3c(O)c(Cl)cc(Cl)c3c2=O)ccn1 [PB 1250]	480	–	–	–	10 days, 1/4 deaths	114.8	100.7	CuTy: 80% inhibition	–	–	–	–	–	–	–	–	–	–
c1ccc(CN(CCN(Cc2ccccn2)Cc2ccccn2)Cc2ccccn2)nc1 [TPEN, reference compound]	–	–	–	–	–	–	–	–	–	–	–	–	inhibited ZP1 labeling	–	–	–	–	–
CCCc1cnc2c(O)cccn2c1=O [PB 1149]	300	49	5000	Up to 690 ng/ml ng/mL	–	79.1	45.2	CuTy: 95% inhibition	−45%	No change	No change	10 days, none	–	86.2	12.4	–	–	–
O=c1c2ccc(I)c(O)c2ncn1-c1ccc(F)cc1F [PB 1157]	380	45	8100	–	6 days, 2/4 deaths	90.3	80.3	–	–	–	–	–	–	–	–	–	–	–
CCc1cnc2c(O)c(I)ccn2c1=O [PB 1127]	280	55	4500	–	–	82.5	23.3	25% inhibit	–	–	–	–	–	–	–	At 10 mg/kg: Up to 7082 ng/ mL ng/mL	At 10 mg/kg No effect	At 10 mg/kg 10 days, none
